Measured values: publication PMC12595434, “Development of retinoid nuclear receptor pathway antagonists through targeting aldehyde dehydrogenase 1A3” (iScience, 2025)
Where “and” joins values, the source holds several entries; their conditions need not be identical. Equal values may be shown once.

Columns and labels:
[1] = Plasma stability (human); format: in vitro ADME; details: read-out: Plasma stability T1/2 (human)
[2] = target: T1, ROBO1 (Homo sapiens, UniProt Q9Y6N7); assay: Thermal proteome profiling (TPP) in A375 cells; format: cell-based; details: ROBO1, 100 nM
T1 construct: Treated A375 cells were harvested from 10 × 15 cm plates; endogenous in cells; host or cells: A375 melanoma cells

[3] = target: Alpha2A (Homo sapiens, UniProt P08913); assay: Off-target profiling panel; format: binding; details: read-out: Inhibition by MBE1 at 10 μM (%)
[4] = target: M3 (Homo sapiens, UniProt P20309); assay: Off-target profiling panel; format: binding; details: read-out: Inhibition by MBE1 at 10 μM (%)
[5] = target: op-kappa (Homo sapiens, UniProt P41145); assay: Off-target profiling panel; format: binding; details: read-out: Inhibition by MBE1 at 10 μM (%)
[6] = target: nACHR-Alpha7 (Homo sapiens, UniProt P36544); assay: biochemical; format: binding; details: read-out: Inhibition by MBE1 at 10 μM (%)
[7] = target: 5HT1a (Homo sapiens, UniProt P08908); assay: Off-target profiling panel; format: binding; details: read-out: Inhibition by MBE1 at 10 μM (%)
[8] = target: CB1 (Homo sapiens, UniProt P21554); assay: Off-target profiling panel; format: binding; details: read-out: Inhibition by MBE1 at 10 μM (%)
[9] = system: LN229 cells; assay: Metabolomic profiling of treated cell lines (raw metabolite counts); format: cell-based, human; details: LN229:MBE, replicates
Text: Supplement mmc8.xlsx, sheet "Supplement Table 7" | column: LN229:MBE

[10] = system: AsPC-1 cells; assay: as above; format: cell-based; details: AsPC-1:MBE, replicates
Text: Supplement mmc8.xlsx, sheet "Supplement Table 7" | column: AsPC-1:MBE

[11] = 7-day repeat-dose study, oral gavage; format: in vivo, mouse; details: 50 mg/kg twice daily oral gavage
Method: In order to accommodate in vivo dosing and to also determine any potential toxic effects of MBE1.5, we performed a 7-day repeat-dose study administering a suspension of MBE1.5 at 50 mg/kg twice daily via oral gavage.
Finally, to establish a pharmacokinetic profile throughout dosing, MBE1.5 was analyzed in serum 12 h post dose on day 1 and day 7. […] To accommodate consistent plasma concentrations without accumulation, MBE1.5 was formulated to a lower concentration in mouse diet that would administer a dose equivalent to 25 mg/kg daily. This formulated diet was provided to mice for 5 days, at which point serum was analyzed for MBE1.5 concentration at 6:30 a.m. and 4:00 p.m. on day 5 to capture differences in mouse feeding cycles.
Figure S5. Specificity, tolerability and pharmacokinetic analysis of MBE1.5 in […]
MCF7 or SUM159 cells and a dose titration of MBE1.5 was performed against each cell line in the Aldelfuor assay to confirm ALDH1A3 isoform specificity for MBE1.5. n= 3 […]
proteome profiling in A375 cells was performed in DMSO and at two concentrations of MBE1 using a 10 temperature melting curve for isolation, followed by proteomic analysis, filtering and mapping peptide frequency as a composite melting curve, n=3 biological replicates per condition-temperature. […] ALDH1A3 or NPTN were assessed by WB to confirm the stabilization of ALDH1A3 but not NPTN (55kD, as indicated by arrow) by MBE1. […]
analysis of MBE1.5 following identification of proper formulations and administration to fasted male CD1 mice at 1 mg/kg intravenous (IV) and 10 mg/kg oral gavage (PO). n = 3 mice per arm. G-I, MBE1.5 administered as a suspension to C57BL/6 male mice via bi-daily PO administration for seven days as compared to the vehicle was tracked for body weight (G), complete blood count at day 7 (H) and plasma concentrations of MBE1.5 were analyzed at 12 hours post Day 1 dosing and 12 hours following the last dose (I). n = 4 male mice per arm. […] Upon acclimation, serum MBE1.5 concentrations were calculated following blood draws at 6:30 am and 4 pm. n = 5 mice per arm. […]

T1 sequence (Q9Y6N7 26-1651): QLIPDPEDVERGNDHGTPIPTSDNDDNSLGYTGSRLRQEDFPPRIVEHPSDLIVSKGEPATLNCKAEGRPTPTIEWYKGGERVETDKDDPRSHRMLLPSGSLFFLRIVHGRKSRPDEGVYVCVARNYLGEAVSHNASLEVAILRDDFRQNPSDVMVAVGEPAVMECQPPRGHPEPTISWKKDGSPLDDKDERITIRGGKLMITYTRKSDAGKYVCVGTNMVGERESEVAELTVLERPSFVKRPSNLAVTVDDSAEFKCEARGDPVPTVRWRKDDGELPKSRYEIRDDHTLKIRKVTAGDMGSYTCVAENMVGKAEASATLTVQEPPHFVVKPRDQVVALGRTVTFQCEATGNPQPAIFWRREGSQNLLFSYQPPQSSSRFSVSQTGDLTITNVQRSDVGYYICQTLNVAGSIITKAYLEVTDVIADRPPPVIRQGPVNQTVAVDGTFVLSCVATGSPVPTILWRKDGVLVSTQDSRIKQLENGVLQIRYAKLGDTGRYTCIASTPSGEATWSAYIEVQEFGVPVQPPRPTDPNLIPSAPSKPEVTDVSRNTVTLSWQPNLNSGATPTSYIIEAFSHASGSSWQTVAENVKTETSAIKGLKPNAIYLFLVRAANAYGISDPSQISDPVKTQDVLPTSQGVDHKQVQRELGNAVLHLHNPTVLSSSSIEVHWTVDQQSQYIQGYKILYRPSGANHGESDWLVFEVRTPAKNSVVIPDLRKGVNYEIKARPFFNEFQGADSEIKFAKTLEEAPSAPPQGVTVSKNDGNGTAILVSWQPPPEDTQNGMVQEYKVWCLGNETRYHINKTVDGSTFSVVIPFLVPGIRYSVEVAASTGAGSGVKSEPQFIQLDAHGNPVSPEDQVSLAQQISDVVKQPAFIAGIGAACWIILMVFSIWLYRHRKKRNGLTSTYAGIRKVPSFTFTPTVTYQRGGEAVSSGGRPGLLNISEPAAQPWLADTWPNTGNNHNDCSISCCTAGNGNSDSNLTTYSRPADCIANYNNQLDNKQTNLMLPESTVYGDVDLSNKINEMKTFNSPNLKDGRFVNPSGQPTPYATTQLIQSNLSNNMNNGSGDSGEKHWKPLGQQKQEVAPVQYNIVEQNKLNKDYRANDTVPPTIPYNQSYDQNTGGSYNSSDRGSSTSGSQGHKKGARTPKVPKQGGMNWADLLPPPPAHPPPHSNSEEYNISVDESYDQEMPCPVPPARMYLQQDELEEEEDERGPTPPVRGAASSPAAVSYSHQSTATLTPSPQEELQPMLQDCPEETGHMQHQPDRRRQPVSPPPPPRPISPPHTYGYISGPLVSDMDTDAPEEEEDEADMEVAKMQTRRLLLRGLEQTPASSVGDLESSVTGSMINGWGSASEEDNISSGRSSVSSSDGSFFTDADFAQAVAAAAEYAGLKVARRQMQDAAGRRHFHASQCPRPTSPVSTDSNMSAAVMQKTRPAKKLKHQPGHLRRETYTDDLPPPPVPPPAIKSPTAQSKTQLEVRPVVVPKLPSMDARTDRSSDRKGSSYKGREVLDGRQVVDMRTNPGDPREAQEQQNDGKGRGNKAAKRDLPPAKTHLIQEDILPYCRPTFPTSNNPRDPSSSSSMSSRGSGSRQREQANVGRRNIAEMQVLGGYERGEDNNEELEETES
Sequence of 5HT1a (P08908 whole entry): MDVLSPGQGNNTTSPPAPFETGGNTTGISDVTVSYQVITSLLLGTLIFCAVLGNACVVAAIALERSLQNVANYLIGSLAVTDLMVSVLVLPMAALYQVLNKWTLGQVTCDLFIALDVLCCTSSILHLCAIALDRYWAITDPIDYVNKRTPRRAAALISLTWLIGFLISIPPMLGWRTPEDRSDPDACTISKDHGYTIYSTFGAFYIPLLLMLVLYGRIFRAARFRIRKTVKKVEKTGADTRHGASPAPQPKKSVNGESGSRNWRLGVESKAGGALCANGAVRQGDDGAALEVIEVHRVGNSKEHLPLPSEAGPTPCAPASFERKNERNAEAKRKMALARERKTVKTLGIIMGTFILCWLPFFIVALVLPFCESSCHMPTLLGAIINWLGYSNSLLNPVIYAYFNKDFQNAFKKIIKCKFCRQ
Sequence of M3 (P20309 whole entry): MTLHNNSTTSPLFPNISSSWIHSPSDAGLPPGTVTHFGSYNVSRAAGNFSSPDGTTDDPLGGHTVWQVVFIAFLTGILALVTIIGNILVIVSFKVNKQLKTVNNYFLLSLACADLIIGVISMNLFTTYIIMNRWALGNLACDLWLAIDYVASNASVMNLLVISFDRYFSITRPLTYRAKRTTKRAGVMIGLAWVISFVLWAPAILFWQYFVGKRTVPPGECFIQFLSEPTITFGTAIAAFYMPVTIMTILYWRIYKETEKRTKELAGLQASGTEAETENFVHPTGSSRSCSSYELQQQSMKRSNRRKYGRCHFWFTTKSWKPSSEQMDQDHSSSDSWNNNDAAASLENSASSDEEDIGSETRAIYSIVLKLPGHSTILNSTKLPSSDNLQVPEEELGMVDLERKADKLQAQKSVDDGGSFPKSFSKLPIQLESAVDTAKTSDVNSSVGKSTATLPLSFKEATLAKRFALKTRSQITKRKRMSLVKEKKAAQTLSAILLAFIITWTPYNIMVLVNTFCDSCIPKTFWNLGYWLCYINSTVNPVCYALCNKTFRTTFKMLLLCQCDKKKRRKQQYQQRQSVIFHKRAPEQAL
Sequence of CB1 (P21554 whole entry): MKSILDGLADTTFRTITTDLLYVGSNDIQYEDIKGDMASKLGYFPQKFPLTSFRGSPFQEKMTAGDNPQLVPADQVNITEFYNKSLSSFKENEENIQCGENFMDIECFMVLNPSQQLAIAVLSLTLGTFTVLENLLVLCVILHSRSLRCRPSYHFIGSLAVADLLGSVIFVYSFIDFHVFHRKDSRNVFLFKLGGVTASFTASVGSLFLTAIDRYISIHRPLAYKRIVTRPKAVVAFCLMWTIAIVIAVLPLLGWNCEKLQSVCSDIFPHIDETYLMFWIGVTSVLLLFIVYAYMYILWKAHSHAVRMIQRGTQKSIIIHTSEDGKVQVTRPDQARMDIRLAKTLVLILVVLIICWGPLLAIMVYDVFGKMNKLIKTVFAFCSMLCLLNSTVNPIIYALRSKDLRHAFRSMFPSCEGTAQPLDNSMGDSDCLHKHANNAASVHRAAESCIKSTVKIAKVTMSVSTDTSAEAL
Sequence of op-kappa (P41145 whole entry): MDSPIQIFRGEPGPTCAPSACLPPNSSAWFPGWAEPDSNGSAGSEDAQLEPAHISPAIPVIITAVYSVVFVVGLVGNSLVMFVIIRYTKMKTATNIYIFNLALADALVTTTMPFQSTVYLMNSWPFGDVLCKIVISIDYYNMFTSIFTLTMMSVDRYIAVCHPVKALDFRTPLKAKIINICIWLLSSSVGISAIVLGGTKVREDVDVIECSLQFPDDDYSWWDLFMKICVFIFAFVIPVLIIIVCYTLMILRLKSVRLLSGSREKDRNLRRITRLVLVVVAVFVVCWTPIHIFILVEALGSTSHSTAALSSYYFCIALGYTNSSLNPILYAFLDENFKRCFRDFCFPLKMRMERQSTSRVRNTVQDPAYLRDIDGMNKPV
Sequence of Alpha2A (P08913 whole entry): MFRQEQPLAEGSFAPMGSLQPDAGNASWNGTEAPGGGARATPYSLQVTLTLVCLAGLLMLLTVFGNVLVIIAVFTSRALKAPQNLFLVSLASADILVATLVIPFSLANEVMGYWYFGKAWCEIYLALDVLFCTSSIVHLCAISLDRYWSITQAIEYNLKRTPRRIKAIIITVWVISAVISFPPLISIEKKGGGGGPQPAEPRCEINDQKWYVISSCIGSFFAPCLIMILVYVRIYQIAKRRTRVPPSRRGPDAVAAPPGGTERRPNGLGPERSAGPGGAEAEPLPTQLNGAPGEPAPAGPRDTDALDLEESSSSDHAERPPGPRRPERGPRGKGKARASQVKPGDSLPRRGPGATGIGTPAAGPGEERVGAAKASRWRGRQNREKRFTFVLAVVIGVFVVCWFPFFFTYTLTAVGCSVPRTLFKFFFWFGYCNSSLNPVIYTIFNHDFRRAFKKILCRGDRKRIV
Sequence of nACHR-Alpha7 (P36544 23-502): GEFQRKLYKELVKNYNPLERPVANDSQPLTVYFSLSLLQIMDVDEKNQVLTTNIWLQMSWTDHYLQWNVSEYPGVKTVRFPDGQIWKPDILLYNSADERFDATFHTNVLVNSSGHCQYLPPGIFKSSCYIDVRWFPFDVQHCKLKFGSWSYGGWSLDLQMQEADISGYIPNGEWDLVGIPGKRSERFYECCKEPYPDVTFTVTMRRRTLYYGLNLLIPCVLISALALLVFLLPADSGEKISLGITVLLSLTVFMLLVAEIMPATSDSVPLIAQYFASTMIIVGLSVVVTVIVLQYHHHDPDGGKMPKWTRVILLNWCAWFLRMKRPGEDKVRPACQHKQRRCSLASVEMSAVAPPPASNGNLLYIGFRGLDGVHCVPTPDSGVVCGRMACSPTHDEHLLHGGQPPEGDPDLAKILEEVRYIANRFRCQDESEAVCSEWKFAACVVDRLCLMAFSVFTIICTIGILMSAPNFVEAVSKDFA

CCc1cnccc1C(=O)Nc1cc2c(cc1F)NC(=O)CC2 [MBE1, 3-ethyl-N-(7-fluoro-2-oxo-3,4-dihydro-1H-quinolin-6-yl)pyridine-4-carboxamide]
half-life [1]: > 4.82 h | 100nM MBE1 Tm [2]: 63.1814 | DMSO-100nM MBE1 TM [2]: -8.49 | inhibition at 10 µM [3]: -1.15% | inhibition at 10 µM [4]: -13.4% | inhibition at 10 µM [5]: -12.6% | inhibition at 10 µM [6]: -9.85% | inhibition at 10 µM [7]: 3.78% | inhibition at 10 µM [8]: -7.11% | Raw counts of 2-Hydroxybutyric acid [9]: 261573 and 302862 and 279756 | Raw counts of 3-Hydroxybutyric acid [9]: 1309454 and 1164963 and 1206122 | Raw counts of 3-Phosphoglycerate [9]: 11596.7 and 6745.18 and 3724.31 | Raw counts of 3-Phosphoserine [9]: 6232.78 and 2797.63 and 5215.65 | Raw counts of 6-Phosphogluconate [9]: 5157.27 and 5734.83 and 2668.31 | Raw counts of Carbamoyl phosphate [9]: 45195.2 and 38665.3 and 41961.6 | Raw counts of Citrulline [9]: 498544 and 479590 and 504161 | Raw counts of Cytidine [9]: 67589.2 and 84265.7 and 71881.1 | Raw counts of Hypoxanthine [9]: 1333474 and 1740688 and 1516660 | Raw counts of Isoleucine [9]: 1.29E+08 and 1.33E+08 and 1.18E+08 | Raw counts of Lactate [9]: 3.62E+08 and 3.37E+08 and 3.31E+08 | Raw counts of Leucine [9]: 1.02E+08 and 1.11E+08 and 1.01E+08 | Raw counts of Methionine [9]: 1.89E+07 and 2.12E+07 and 1.99E+07 | Raw counts of N-acetyl-glutamine [9]: 31448.3 and 20555.9 and 36320.3 | Raw counts of Orotate [9]: 0 | Raw counts of Phenylalanine [9]: 7.59E+07 and 8.45E+07 and 7.68E+07 | Raw counts of Phosphoenolpyruvate [9]: 0 and 2071.2 and 2356.81 | Raw counts of Pyridoxine [9]: 4.91E+07 and 5.30E+07 and 4.89E+07 | Raw counts of Pyruvate [9]: 2231037 and 2192759 and 1890595 | Raw counts of Ribitol [9]: 1641581 and 2032681 and 3007411 | Raw counts of Sorbitol [9]: 2.02E+07 and 2.14E+07 and 2.12E+07 | Raw counts of Taurine [9]: 1.22E+07 and 1.24E+07 and 1.15E+07 | Raw counts of Tryptophan [9]: 1.21E+07 and 1.27E+07 and 1.15E+07 | Raw counts of Tyrosine [9]: 4.34E+07 and 4.46E+07 and 4.65E+07 | Raw counts of UDP [9]: 108325 and 86766.9 and 84670.8 | Raw counts of Uracil [9]: 1116835 and 1114912 and 1017401 | Raw counts of Uridine [9]: 932418 and 1052824 and 956012 | Raw counts of Valine [9]: 6.74E+07 and 7.26E+07 and 6.71E+07 | Raw counts of Xanthine [9]: 9846835 and 1.10E+07 and 1.04E+07 | Raw counts of 2-Hydroxybutyric acid [10]: 407527 and 409338 and 391016 | Raw counts of 3-Hydroxybutyric acid [10]: 935326 and 777510 and 811161 | Raw counts of 3-Phosphoglycerate [10]: 27569.7 and 29653.8 and 33692.4 | Raw counts of 3-Phosphoserine [10]: 0 | Raw counts of 6-Phosphogluconate [10]: 2283.86 and 2700.65 and 2716.13 | Raw counts of Carbamoyl phosphate [10]: 77497 and 91797.1 and 80487.7 | Raw counts of Citrulline [10]: 767940 and 822514 and 761078 | Raw counts of Cytidine [10]: 42547.3 and 33951.9 and 31568.3 | Raw counts of Hypoxanthine [10]: 6602890 and 6349420 and 6667202 | Raw counts of Isoleucine [10]: 8463643 and 7729570 and 8029520 | Raw counts of Lactate [10]: 2.84E+08 and 2.40E+08 and 2.49E+08 | Raw counts of Leucine [10]: 1.56E+07 and 1.48E+07 and 1.55E+07 | Raw counts of Methionine [10]: 3519797 and 3454298 and 3337800 | Raw counts of N-acetyl-glutamine [10]: 14303 and 11323.4 and 0 | Raw counts of Orotate [10]: 62546.3 and 65785 and 58119.5 | Raw counts of Phenylalanine [10]: 9403483 and 9101309 and 9197218 | Raw counts of Phosphoenolpyruvate [10]: 23786.2 and 24455.1 and 27616 | Raw counts of Pyridoxine [10]: 1078977 and 951150 and 1075404 | Raw counts of Pyruvate [10]: 3.56E+07 and 3.45E+07 and 3.67E+07 | Raw counts of Ribitol [10]: 1829543 and 1600997 and 2014101 | Raw counts of Sorbitol [10]: 2.37E+07 and 2.26E+07 and 2.62E+07 | Raw counts of Taurine [10]: 5285632 and 4263876 and 4897168 | Raw counts of Tryptophan [10]: 2709598 and 2662217 and 2730749 | Raw counts of Tyrosine [10]: 5411932 and 5220208 and 5418708 | Raw counts of UDP [10]: 31905 and 38800.3 and 38337.9 | Raw counts of Uracil [10]: 1743558 and 1602379 and 1692033 | Raw counts of Uridine [10]: 1071683 and 996648 and 1101788 | Raw counts of Valine [10]: 1.20E+07 and 1.17E+07 and 1.23E+07 | Raw counts of Xanthine [10]: 6452708 and 5994216 and 6427826

CCc1ccccc1C(=O)Nc1cc2c(cc1F)NC(=O)CC2 [MBE1.5, 2-ethyl-N-(7-fluoro-2-oxo-3,4-dihydro-1H-quinolin-6-yl)benzamide]
serum level 12 h post dose, day 1 vs day 7 (in words) [11]: accumulated | body weight vs vehicle (in words) ([11]; 7 days, C57BL/6 male mice): no difference | blood profile (complete blood count) vs vehicle (in words) ([11]; day 7): no detectable difference
